Here are results for three molecules from patent US20230130513A1, “Magnetic-Responsive Photosensitizer Nanoplatform and Uses Thereof” (University of Maryland, Baltimore, priority 2021, published 2023).

Data set [1] concerns Human gingival fibroblasts. Nature of the data set: Live/dead assay of fibroblast cells. Type of data set: cell-based. As to conditions: one day incubation; microemulsions 1:1 with medium.
Protocol: Human gingival fibroblasts (HGF, ScienCell, San Diego, Calif., USA) were cultured using fibroblast medium (FM) supplemented with 2% fetal bovine serum, 1% fibroblast growth supplement, 100 IU/mL penicillin, and 100 IU/mL streptomycin (18 76). When the viability of the cells was above 90%, the cells were seeded in the wells of a 96-well plate (5,000 cells per well) and incubated for 24 h. In the following day, the medium was removed, and different concentrations of superparamagnetic iron(II) oxide nanoparticles (0.25, 0.5, 1, 1.5, 2, 2.5, and 5 wt. %) nanoparticles with and without 100 μg/mL of TBO photosensitizer were dissolved in the fibroblast medium and incubated in contact with the cells for 24 h. The synthesized microemulsions containing the different concentrations of superparamagnetic iron(II) oxide nanoparticles (0.25, 0.5, 1, 1.5, 2, 2.5, and 5 wt. %) were also tested. All the microemulsions were diluted with the fibroblast medium at a 1:1 ratio. After 24 h of incubation at 37° C. with 5% CO2, the cells were washed with phosphate-buffered saline (PBS), and cell counting Kit-8 (CCK-8, Dojindo, Rockville, Md., USA) was used to evaluate the cell viability. The absorbance was read at 450 nm using a spectrophotometer (SpectraMax M5, Molecular Devices, Sunnyvale, Calif., USA). […]
A short description of data set [2]: pH measurement. Format: physicochemical. To be noted: room temperature. The method, then: (§1) Three microemulsions were selected for further investigations (1, 2.5, and 5 wt. %). Microemulsions were tested for thermodynamic stability via centrifugation stress at 5,000 rpm for 2 h at 4° C., and freeze-thaw stress consisting of three complete cycles. Each cycle consisted of placing the microemulsion for 24 h at −20° C. followed by another 24 h at 4° C. […] For long-term stability, microemulsions were kept in the dark at room temperature and then examined at 1, 3, and 6 months for physical changes or phase separation (21,22). The pH of the synthesized microemulsions was tested using a digital pH meter (accuracy±5%; Accumet XL25, Thermo Fisher Scientific, Waltham, Mass., USA). Before the pH measurement, the pH meter was calibrated using commercial standard buffer solutions of pH 4, pH 7, and pH 10 at room temperature. For the absorbance evaluation, the upper third of the synthesized microemulsions was investigated over time using ultraviolet-visible optical absorption spectrometry (SpectraMax M5, Molecular Devices, Sunnyvale, Calif., USA). […] The density of each microemulsion was calculated following the equation: […]

Data set [3] in a line: Density of microemulsion. Format: physicochemical.
Data set [4] can be described thus: Absorbance change over time (UV-visible spectrometry). Format: physicochemical. The method, then:
as §1

For data set [5], the system named is S. mutans UA159 biofilms. Nature of the data set: Photodynamic treatment against Streptococcus mutans biofilms (CFU). Type of data set: cell-based. To be noted: for antibacterial effect of core components on S. mutans biofilm: components alone, diluted to their concentration in the microemulsion (FIG. 5A). The method, then: Photodynamic Treatment Via MagTBO Against Streptococcus mutans Biofilms S. mutans UA159 obtained from the American Type Culture Collection (ATCC, Manassas, Va., USA) were grown overnight using brain heart infusion (BHI) broth (Sigma-Aldrich, St. Louis, Mo., USA) at 37° C. and 5% CO2 incubator. The optical density of the S. mutans was modified to 1×10^8 colony-forming units (CFU)/mL (OD600=0.9) and diluted 1:20 with BHI broth supplemented with 2% of sucrose (12). 200 μL of the diluted overnight culture was placed inside the wells of a black 96-well plate for 24 h. The media was changed after 24 h and 48 h of biofilm growth was continued. The biofilm was washed with 0.9% saline and irradiated with 100 μg/mL of TBO and MagTBO microemulsions containing 1, 2.5, and 5% of SPIONs with and without magnetic field (neodymium magnet, 0.4 Tesla; pull force=601b5). The TBO or the microemulsions were left for 1 min and then irradiated for 5 minutes to deliver an energy density of 180 J/cm^2 and light intensity of 180 mW. The magnetic field was applied at a 10 mm distance below the biofilm during the entire period of the incubation and irradiation times (FIG. 1C). Untreated wells and wells treated with glycerol, essential oil, and polysorbate 20 were used as controls. After each treatment, the biofilms were washed by placing 200 μL of 0.9% saline inside the well, and then, the 0.9% saline was gently aspirated. Next, another 200 μL of saline was placed inside the well, and the biofilm was gently scraped to remove the biofilm cells (23). Then, the biofilm cells were resuspended with the saline to perform serial dilutions (1:10, 1:100, 1:1000, 1:10 000, and 1:100 000) using BHI agar. The BHI agar plates were incubated for 48 h at 37° C. in a 5% CO2 incubator and then counted using a colony counter. Considering the dilution factor, the CFUs/mL were calculated and estimated to measure the number of colonies per milliliter. Two wells were randomly selected for Live/Dead staining of the biofilms to be washed with 0.9% saline and then stained with the BacLight live/dead kit (Molecular Probes, Eugene, Oreg.).

The subject of data set [6] is S. mutans biofilms. Nature of the data set: Live/Dead staining of S. mutans biofilms. Type of data set: cell-based, Streptococcus mutans. As to conditions: aPDT, no magnetic field. The method, then: After each treatment, the biofilms were washed by placing 200 μL of 0.9% saline inside the well, and then, the 0.9% saline was gently aspirated. Next, another 200 μL of saline was placed inside the well, and the biofilm was gently scraped to remove the biofilm cells (23). Then, the biofilm cells were resuspended with the saline to perform serial dilutions (1:10, 1:100, 1:1000, 1:10 000, and 1:100 000) using BHI agar. The BHI agar plates were incubated for 48 h at 37° C. in a 5% CO2 incubator and then counted using a colony counter. Considering the dilution factor, the CFUs/mL were calculated and estimated to measure the number of colonies per milliliter. Two wells were randomly selected for Live/Dead staining of the biofilms to be washed with 0.9% saline and then stained with the BacLight live/dead kit (Molecular Probes, Eugene, Oreg.).

Data set [7] concerns saliva-derived multispecies biofilms. Nature of the data set: Photodynamic treatment against saliva-derived biofilms (CFU). Format: cell-based. To be noted: 7-day biofilm on dentin slabs, aPDT, no magnetic field, vs control. The method, then:
Photodynamic Treatment with MagTBO Against Saliva-Derived Biofilms
Saliva samples were collected from ten healthy individuals with no active carious lesions or history of antibiotics in the last three months. The participants were instructed not to brush their teeth 24 h and not eat or drink two h before the collection. The collected saliva samples were mixed to create a homogenous and complex bacterial composition. The use of saliva as inoculum was approved by the University of Maryland Baltimore Institutional Review Board (HP-00050407). The collected saliva was mixed with glycerol (70:30) and stored at −80° C. This model was used in previous studies to form thick and mature multispecies biofilm (24-26).
Dentin slabs (6×6×1 mm) were used as substrates to grow the biofilm (FIG. 8A). The slabs were prepared from radicular dentin of extracted teeth using a diamond saw with water as coolant (Isomet, Buehler, Lake Bluff, Ill., USA). The collection and the use of extracted teeth were approved by the University of Maryland Baltimore Institutional Review Board. […] The microhardness of the slabs was measured via Vicker's indentation (HMV II, Shimadzu Corporation, Kyoto, Japan) by calculating the average of five different indentations (25 g load for 10 s) per slab (27). […]

Data set [8] relates to Human gingival fibroblasts.
Protocol: Human gingival fibroblasts (HGF, ScienCell, San Diego, Calif., USA) were cultured using fibroblast medium (FM) supplemented with 2% fetal bovine serum, 1% fibroblast growth supplement, 100 IU/mL penicillin, and 100 IU/mL streptomycin (18 76). When the viability of the cells was above 90%, the cells were seeded in the wells of a 96-well plate (5,000 cells per well) and incubated for 24 h. In the following day, the medium was removed, and different concentrations of superparamagnetic iron(II) oxide nanoparticles (0.25, 0.5, 1, 1.5, 2, 2.5, and 5 wt. %) nanoparticles with and without 100 μg/mL of TBO photosensitizer were dissolved in the fibroblast medium and incubated in contact with the cells for 24 h. The synthesized microemulsions containing the different concentrations of superparamagnetic iron(II) oxide nanoparticles (0.25, 0.5, 1, 1.5, 2, 2.5, and 5 wt. %) were also tested. All the microemulsions were diluted with the fibroblast medium at a 1:1 ratio. After 24 h of incubation at 37° C. with 5% CO2, the cells were washed with phosphate-buffered saline (PBS), and cell counting Kit-8 (CCK-8, Dojindo, Rockville, Md., USA) was used to evaluate the cell viability. The absorbance was read at 450 nm using a spectrophotometer (SpectraMax M5, Molecular Devices, Sunnyvale, Calif., USA). For the live/dead assay, the fibroblast cells were seeded in the wells of a 24-well plate (40,000 cells per well). The medium was changed daily to allow the viability to be above 90%. Microemulsions containing 5 and 2.5% were added to a fresh culture medium at the ratio of 1:1 and incubated with the cells for one day. Wells treated with TBO alone or with no treatment were used as controls. After one day of incubation, the old medium was removed, cells were washed with PBS, and LIVE/DEAD™ Cell Imaging Kit (Invitrogen, Frederick, Md., USA) was used to stain the cells. The cells were visualized using an inverted epifluorescence microscope (Eclipse TE2000-S, Nikon, Melville, N.Y., USA).
The test system of data set [9] is mouse monocyte-macrophage cells. To be noted: cited from earlier work.

In the case of `Cc1cc2nc3ccc(N(C)C)cc3[s+]c2cc1N.[Cl-]` [TBO, toluidine blue O], the “viable cells in live/dead images” value in data set [1] was “significantly reduced viability”. In addition, in data set [2], the “pH Measurement” value is on record as 3.19 ± 0.05. Further, the Density in data set [3] was determined as 1 g/mL. The “Absorbance change (%)” value in data set [4] (1-Month), in [4] (3-Month) and in data set [4] (6-Month) was “No change” in each case. In addition, the “reduction against the S. mutans biofilm (CFU)” value in data set [5] (aPDT with light activation 180 J/cm2, no magnetic field, vs control (FIG. 5C)) worked out at 3 log. The “antibacterial effect on S. mutans biofilm” value in data set [5] (incubated for 5 min without light activation (FIG. 5B)) is given as “No antibacterial effect”. In [6], the “viable microorganisms in live/dead images” value is “significant reduction in the viable microorganisms”. Besides, the “reduction of multispecies biofilm CFU (total microorganisms, total streptococci, mutans streptococci, total lactobacilli)” value in data set [7] is recorded as “around 1 log”. In data set [8] (TBO alone, 100 μg/mL, 24 h), the “percentage of fibroblast viability” value worked out at 33.4%. For the same molecule, in data set [8] (compared to the control), the “cytotoxicity against fibroblasts (in words)” value was “significant toxicity”. The “toxicity against macrophage cells” value in data set [9] (100 μg/mL TBO, previous report (12)) is recorded as “did not induce significant toxicity”. Also, the “cytotoxicity against macrophage cell line” value in data set [9] (concentrations higher than 100 μg/mL, reported (12)) was “critical cytotoxicity”.
Regarding `OCC(O)CO` [glycerol], the “antibacterial effect of core components on S. mutans biofilm” value in [5] is listed as “None of the components were associated with any antibacterial effect”.
As to polysorbate 20, the “antibacterial effect of core components on S. mutans biofilm” value in data set [5] is “None of the components were associated with any antibacterial effect”. Besides, in data set [8] (added to fibroblast media in a ratio similar to their proportion in the microemulsion), the “cytotoxicity of the microemulsion components (in words)” value is “significant cytotoxicity”.
